Experimental data from patent US20160045487A1, “COMPOSITIONS AND METHODS FOR TREATING NEUROPATHY” (CHILDEREN'S MEDICAL CENTER CORPORATION, priority 2013, published 2016).

What was measured:
[1] = test system: GFAP-DN-erbB4 and wild type mice; assay: Mechanical sensitivity (von Frey filaments); assay type: in vivo, mouse; conditions: after 4 weeks topical treatment, cream 1.5 mM
Experimental: As a first test, a cream containing XIB4035 (1.5 mM) was applied directly to the hind paws of GFAP-DN-erbB4 and wild type mice twice daily for a period of 4 weeks starting prior to symptom onset (P21). Mice of both genotypes were also treated with the base cream containing no drug for control. Mice were tested for responses to a noxious thermal stimulus prior to the initiation of treatment and every 7 days for the duration of the experiment.
Mechanical sensitivity was tested by simulation of the plantar surface of the hind paw with a series of von Frey filaments while the animal was placed on an elevated wire grid. The threshold was determined as the lowest force that evoked a visible withdrawal response. The use of animals was approved by the Animal Care and Use Committee of Children's Hospital Boston.

[2] = test system: GFRα/RET receptor signaling; assay: Tyrosine hydroxylase promoter luciferase reporter assay in SH-SY5Y-THpGL3 cells; assay type: cell-based, human; conditions: for effect in the TH-luciferase assay: XIB4035 alone
Text: One goal of these studies was to determine if XIB4035 could be used for treating SFN in humans. Using the Neuro2A (N2A) murine neuroblastoma cell line, Tokugawa et al. (supra) reported XIB4035 as a competitive agonist for the GDNF receptor GFRα1 that activates the RET receptor. Since populations of DRG sensory neurons express different GFRα receptors, thus making them preferentially responsive to the particular ligands, it was important to determine if XIB4035 was specific to GFRα1 or could act on other family members. Since PSPN has no effect on peripheral sensory neurons, the GFRα1, GFRα2, and GFRα3 receptors were the focus of these studies. The SH-SY5Y, a human neuroblastoma cell line expressing mRNA for GFRα1, GFRα2, and GFRα3, was used to perform two cell-based assays; immunoblots measuring RET phosphorylation and a luciferase reporter assay using the tyrosine hydroxylase (TH) promoter. For the latter two paradigms were used, either overnight treatment immediately followed by luciferase activity measurements or 10 minute treatments followed by washout and overnight incubation prior to measurements. GDNF and ARTN induced robust TH-luciferase activity in a dose dependent manner (FIG. 3E). Because the responses to GDNF and ARTN were more robust, these two factors were chosen for further analysis.
The tyrosine hydroxylase promoter was cloned into the pGL3 basic vector (Promega, Madison, Wis., USA) at the Mlu I and Hind III sites, as previously described (Zwick, supra) (TH-pGL3). Briefly, a 2 Kb promoter region upstream from the transcription initiation site of the rat TH gene was cloned from genomic DNA using the primer sequences, […] and […]. SH-SY5Y cells were co-transfected with the TH-pGL3 and the pBabe-puromycin expression vectors at a molar ratio of 10:1. Cells were selected for stable puromycin resistance at a final concentration of 0.5 μg/ml of puromycin-dihydrochloride. Stable colonies were selected and tested for TH-directed luciferase response to GDNF family ligand stimulation. One stable clone, SH-SY5Y-THpGL3, with good signal-to-noise ratio was selected for use in the experiments.
SH-SY5Y-THpGL3 cells were maintained in DMEM/F12, 5% FBS, and 1% penicillin/streptomycin and plated on collagen coated plates (4 μg/ml). Neuro-2A cells were grown in MEM, 5% FBS, and 1% penicillin/streptomycin. BE(2)-C cells were grown in DMEM/F12 media containing 5% FBS and 1% penicillin/streptomycin. PC-12 cells were maintained in media containing RPMI-1640, 10% horse serum, 5% FBS, and 1% penicillin/streptomycin on collagen coated plates. For luciferase assays, cells were treated for either 10 minutes with washout or overnight with various molecules and assayed for firefly luciferase 16-24 hours post-treatment using the luciferase assay system (Promega, Madison, Wis., USA).

GFRα1/RET = target: T1, GFRα1/RET (UniProt P35546+Q62997); assay: RET phosphorylation in N2A cells transfected with GFRα1; assay type: cell-based, rat GFRα1 in murine N2A cells
T1 construct: N2A cells (which express RET) transfected with GFRα1 or GFRα3 expression constructs; expressed in transfected cells; host or cells: Neuro2A (N2A) cells; GFRα1 plasmid was a gift from Dr. Milbrandt; RET is endogenous
T1 sequence (Q62997 25-430 limits assumed): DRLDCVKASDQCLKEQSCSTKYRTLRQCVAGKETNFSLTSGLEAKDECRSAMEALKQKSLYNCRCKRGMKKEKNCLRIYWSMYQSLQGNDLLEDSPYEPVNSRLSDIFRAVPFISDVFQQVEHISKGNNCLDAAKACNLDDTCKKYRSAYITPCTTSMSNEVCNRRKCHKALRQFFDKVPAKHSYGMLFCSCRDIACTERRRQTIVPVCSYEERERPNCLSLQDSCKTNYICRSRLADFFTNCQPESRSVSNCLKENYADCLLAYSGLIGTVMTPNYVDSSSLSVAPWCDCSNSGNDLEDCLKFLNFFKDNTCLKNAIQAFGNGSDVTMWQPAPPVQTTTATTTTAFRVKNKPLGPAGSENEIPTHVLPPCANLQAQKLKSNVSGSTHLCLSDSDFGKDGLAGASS
T1 sequence (P35546 29-1115): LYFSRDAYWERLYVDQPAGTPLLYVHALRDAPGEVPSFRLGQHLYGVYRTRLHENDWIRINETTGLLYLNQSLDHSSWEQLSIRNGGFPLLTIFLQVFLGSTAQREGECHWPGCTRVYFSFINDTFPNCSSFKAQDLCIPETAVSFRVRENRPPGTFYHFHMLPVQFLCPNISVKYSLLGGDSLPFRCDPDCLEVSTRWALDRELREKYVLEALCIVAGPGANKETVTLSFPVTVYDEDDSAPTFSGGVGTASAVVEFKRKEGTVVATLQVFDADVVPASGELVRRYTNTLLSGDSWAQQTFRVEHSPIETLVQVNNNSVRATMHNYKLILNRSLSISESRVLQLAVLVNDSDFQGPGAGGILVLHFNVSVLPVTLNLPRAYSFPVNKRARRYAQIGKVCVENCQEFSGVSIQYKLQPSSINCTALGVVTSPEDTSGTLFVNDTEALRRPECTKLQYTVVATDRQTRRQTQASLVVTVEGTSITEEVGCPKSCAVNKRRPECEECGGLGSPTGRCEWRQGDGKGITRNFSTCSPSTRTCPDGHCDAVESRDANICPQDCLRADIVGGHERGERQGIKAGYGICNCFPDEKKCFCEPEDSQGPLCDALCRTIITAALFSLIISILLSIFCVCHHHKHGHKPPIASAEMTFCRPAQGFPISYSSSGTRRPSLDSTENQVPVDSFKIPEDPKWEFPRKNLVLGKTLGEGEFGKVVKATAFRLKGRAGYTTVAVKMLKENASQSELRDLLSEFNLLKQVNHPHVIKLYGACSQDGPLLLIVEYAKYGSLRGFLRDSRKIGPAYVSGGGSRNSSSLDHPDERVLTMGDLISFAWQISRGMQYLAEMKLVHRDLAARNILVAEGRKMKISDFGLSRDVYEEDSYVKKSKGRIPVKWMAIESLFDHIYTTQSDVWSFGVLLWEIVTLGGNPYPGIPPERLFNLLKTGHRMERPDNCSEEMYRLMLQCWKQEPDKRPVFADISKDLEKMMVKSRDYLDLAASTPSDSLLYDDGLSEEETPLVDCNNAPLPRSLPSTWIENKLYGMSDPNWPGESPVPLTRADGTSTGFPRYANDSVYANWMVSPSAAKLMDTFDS
Experimental: Since the original report argued that XIB4035 displaces GDNF binding to GFRα1 expressing cells (FIG. 2 in Tokugawa et al., Neurochem Int 42, 81-86 (2003).), potentially ARTN, on TH-luciferase activity and Ret phosphorylation. […] In this experiment, cells were treated with GDNF or ARTN with or without XIB4035 for 10 minutes and cell lysates were either collected immediately or treatment was washed out and replaced with growth media for 30, 60, or 120 minutes. […] Therefore, we tested cells expressing only one GFRα using either N2A cells (which express RET) transfected with GFRα1 or GFRα3 expression constructs, or B(E)2-C cells, which express only GFRα2 together with RET. […] The GFRα1 or GFRα3 transfected N2A cells were then treated with XIB4035 alone, the appropriate ligand for the expressed receptor alone, or XIB4035 and ligand in combination for 10 minutes, and collected lysates immediately after treatment or 60 minutes after washout. […] Similar results were obtained with GFRα2 and NRTN using B(E)2-C cells (FIG. 8). Thus, XIB4035 is a positive modulator of signaling by GDNF family ligands and their receptors, not an agonist for GFRα1 as previously reported.
For phosphorylated Ret immunoblot experiments, cells were treated with various combinations of molecules for 10 minutes and either collected immediately or had treatment washed out and returned to control treatment media for the times indicated prior to cell collection. Lysates were collected in buffer containing: 50 mM Tris-HCL, 1% TX-100, 0.25% Deoxycholic acid, 150 mM sodium chloride, 1 mM EDTA, 0.1 mM sodium fluoride, 0.1 mM sodium pyrophosphate, 0.02 mM sodium orthovanadate, and protease inhibitors Immunoblots were blocked in 5% bovine serum albumin in tris-buffered saline+0.2% Tween 20+0.1 mM sodium fluoride, 0.1 mM sodium pyrophosphate, and 0.02 mM sodium orthovanadate and probed in blocking solution using anti-phospotyrosine (4G10) mouse monoclonal antibody (1:2000; EMD Milipore Corp., Billerica, Mass.). […]

With CCN(CC)CCCC(C)Nc1cc(/C=C/c2ccccc2Cl)nc2cc(Cl)ccc12 (stereo not shown) [XIB4035, N4-{7-chloro-2-[(E)-2-(2-chloro-phenyl)-vinyl]-quinolin-4-yl}-N1,N1-diethyl-pentane-1,4-diamine] the “effect on mechano-reception (response thresholds to mechanical stimuli)” value [1] was “no effect”, the “maximal effect, luciferase activity” value ([2]; 18 nM ARTN + 20 μM XIB4035) was 3.61±0.47 fold over control and the “maximal effect, luciferase activity” value ([2]; 18 nM GDNF + 20 μM XIB4035) was 3.41±0.41 fold over control. The “minimal ARTN dose necessary to induce luciferase activity above control” value ([2]; ARTN + 20 μM XIB4035, 10 minutes, washout, overnight) was 2.7 pM, the “minimal GDNF dose necessary to induce luciferase activity above control” value ([2]; GDNF + 20 μM XIB4035, 10 minutes, washout, overnight) was 2.7 pM and the “effect in the TH-luciferase assay” value ([2]; 10 minute treatment, 1-15 μM, washout, overnight incubation) was “no effect”. The “effect in the TH-luciferase assay” value ([2]; overnight treatment, 6.25-500 nM) was “no effect”, the “effect on ligand-induced TH-luciferase activity” value ([2]; co-treatment with either GDNF or ARTN over a range of doses) was “significantly potentiates” and the “induction of RET phosphorylation” value (GFRα1/RET; XIB4035 alone, 10 minutes) was “did not induce RET phosphorylation”. For the same compound, the “RET phosphorylation at the 60 min time-point compared to ligand alone” value (GFRα1/RET; XIB4035 and ligand co-treatment, 60 minutes after washout) was “clearly prolonged”.
